The text below walks through data of ChEMBL document CHEMBL1201862, “PubChem BioAssay data set” (2004).

Each structure is given as a SMILES string.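 Values below derive from 48-hour exposures of cells grown in 96-well plates, with endpoints linearly interpolated between the two concentrations bracketing the appropriate inhibition level. Abbreviation: GI50, concentration required for 50% inhibition of growth.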 Calls of active or inactive are those of the source. No stated cut-off is given here; in the data, active = GI50 up to about 1.1 µM and inactive = higher.

Among the test systems are PC-3; A549; SF-295; NCI-H23; U-251; MDA-MB-435; NCI-H460; OVCAR-5; MDA-N; SNB-19; UACC-257; MOLT-4; HOP-62; CCRF-CEM; SK-MEL-2; UACC-62; MCF7; TK-10; DMS-114; 786-0.
Assay in all cases: inhibition of tumour cell growth, NCI panel, 48 h

On to `O=C(Cn1ccnc1[N+](=O)[O-])N(CCO)CCO`, for which the GI50 in the experiment with PC-3, in the experiment with A549, in the experiment with SF-295, in the experiment with NCI-H23, in the experiment with U-251 and in the experiment with MDA-MB-435 was > 250 µM (inactive) each time. Moreover, the GI50 in the experiment on NCI-H460 is > 1250 µM (inactive); in the experiment on OVCAR-5 it was > 250 µM (inactive); in the experiment with MDA-N, > 250 µM (inactive); in the experiment on SNB-19 it was > 250 µM (inactive); in the experiment on UACC-257 it was > 250 µM (inactive); in the experiment with MOLT-4 it was > 250 µM (inactive). In addition, the GI50 with HOP-62 is > 250 µM (inactive); in the experiment with CCRF-CEM, > 250 µM (inactive); with SK-MEL-2, 191 µM (inactive); in the experiment with UACC-62 it was > 250 µM (inactive); in the experiment with MCF7, > 1250 µM (inactive); in the experiment with TK-10 it was > 250 µM (inactive). For the same compound, the GI50 is > 1250 µM (inactive) with DMS-114 and > 250 µM (inactive) in the experiment with 786-0.
Regarding `Cc1ccc(NC(=O)CCc2nnc3s/c(=C\C=C\c4ccccc4)c(=O)n23)cc1`, the GI50 in the experiment on PC-3 is > 100 µM (inactive); with A549 it was > 100 µM (inactive); in the experiment with SF-295, > 100 µM (inactive); in the experiment with NCI-H23 it was > 100 µM (inactive); with U-251, 53.3 µM (inactive); with MDA-MB-435, > 86.5 µM (inactive). Also, the GI50 in the experiment with NCI-H460 is > 83.6 µM (inactive); in the experiment with OVCAR-5, > 100 µM (inactive); with MDA-N, > 79.1 µM (inactive); in the experiment with SNB-19 it was > 79.6 µM (inactive); in the experiment on UACC-257 it was > 95.7 µM (inactive); with MOLT-4, 30 µM (inactive). Further, the GI50 was > 95.5 µM (inactive) with HOP-62; 27.8 µM (inactive) in the experiment on CCRF-CEM; 68.7 µM (inactive) with SK-MEL-2; 80.4 µM (inactive) with UACC-62; > 71.4 µM (inactive) with MCF7; > 100 µM (inactive) in the experiment with TK-10. Moreover, the GI50 in the experiment with DMS-114 and with 786-0 was > 100 µM (inactive) in each case.
Take `COc1cc(CC(C)N)ccc1O` (centres undefined): the GI50 in the experiment on PC-3, in the experiment with A549, in the experiment on SF-295, in the experiment with NCI-H23, in the experiment on U-251 and in the experiment on NCI-H460 was > 100 µM (inactive) each time. Besides, the GI50 in the experiment on OVCAR-5, in the experiment on MDA-N, in the experiment on SNB-19, with UACC-257, with MOLT-4 and in the experiment with HOP-62 was > 100 µM (inactive) in each case. The GI50 with CCRF-CEM is > 31.6 µM (inactive); with SK-MEL-2, > 100 µM (inactive); in the experiment on UACC-62, > 100 µM (inactive); in the experiment on MCF7, > 100 µM (inactive); with TK-10, > 100 µM (inactive); in the experiment on DMS-114, > 100 µM (inactive). The GI50 in the experiment on 786-0 is > 100 µM (inactive).
For the compound `COc1cc(C2c3cc4c(cc3[C@@H](Nc3ccc(F)cc3)C3COC(=O)[C@H]23)OCO4)cc(OC)c1O` (some centres undefined), the GI50 in the experiment with PC-3 was 1.65 µM (inactive); in the experiment on A549, 0.224 µM (active); in the experiment on SF-295, 0.834 µM (active); in the experiment with NCI-H23 it was 1.3 µM (inactive); with U-251, 1.09 µM (active); in the experiment on MDA-MB-435, 4.17 µM (inactive). In addition, the GI50 in the experiment with NCI-H460 was 0.0468 µM (active); with OVCAR-5, 5.3 µM (inactive); with MDA-N, 8.93 µM (inactive); in the experiment with SNB-19, 1.38 µM (inactive); in the experiment with UACC-257, 6.05 µM (inactive); with MOLT-4 it was 0.0535 µM (active). For the same compound, the GI50 was 0.635 µM (active) in the experiment with HOP-62; 6.49 µM (inactive) in the experiment with SK-MEL-2; 0.841 µM (active) in the experiment on UACC-62; 0.408 µM (active) in the experiment on MCF7; 4.88 µM (inactive) in the experiment with TK-10; 2.64 µM (inactive) with DMS-114. The GI50 in the experiment on 786-0 is 1.47 µM (inactive).
On to `CC1=C2C(=O)O[C@@H](c3ccoc3)[C@]2(C)CCC1` [FRAXINELLONE], for which the GI50 in the experiment with A549, in the experiment on SF-295, in the experiment on NCI-H23, in the experiment with U-251, in the experiment with NCI-H460 and in the experiment with OVCAR-5 was > 100 µM (inactive) each time. The GI50 with SNB-19, in the experiment on UACC-257, with MOLT-4, with HOP-62, in the experiment on CCRF-CEM and in the experiment on SK-MEL-2 was > 100 µM (inactive) throughout. For the same compound, the GI50 in the experiment with UACC-62, in the experiment on TK-10, in the experiment on DMS-114 and with 786-0 was > 100 µM (inactive) throughout.
